Laboratory results: ChEMBL document CHEMBL1133194, “Synthesis and bioactivities of novel piperidylpyrimidine derivatives: inhibitors of tumor necrosis factor-alpha production” (Bioorg Med Chem Lett, 2000)

Organism: Mus musculus
Experiment: Ability to inhibit tumor necrosis factor-alpha (TNF-alpha) production in mouse macrophages stimulated with LPS
Assay type: functional

`O=C(c1ccccc1)N1CCC(c2ncnc3ccccc23)CC1` and `O=C(c1ccccc1)N1CCC(c2nc(Cl)nc3ccccc23)CC1` are the same in IC50: 1400 nM for the first, 1400 nM for the second.

`COc1ccc(Cc2cc(C3CCN(C(C)=O)CC3)nc(N)n2)cc1` and `CCC(=O)N1CCC(c2cc(Cc3ccc(OC)cc3)nc(N)n2)CC1` are within 1.5-fold of each other in IC50: 6100 nM for the first, 4900 nM for the second.

`COc1ccc(Cc2cc(C3CCN(C(=O)c4cc(OC)cc(OC)c4)CC3)nc(N)n2)cc1` and `COc1ccc(Cc2cc(C3CCN(C(=O)c4cccc(OC)c4)CC3)nc(N)n2)cc1` are within 1.5-fold of each other in IC50: 1000 nM for the first, 1200 nM for the second.

First: COc1ccc(Cc2cc(C3CCN(C(=O)Cc4ccc5c(c4)OCO5)CC3)nc(N)n2)cc1
Second: COc1ccc(Cc2cc(C3CCN(C(=O)c4ccc5c(c4)OCO5)CC3)nc(N)n2)cc1
The IC50 of the first is 3-fold higher: 1800 nM for the first, 600 nM for the second.

Compared with `Nc1nc(Nc2ccccc2)c2ccccc2n1`, `Nc1nc(C2CCN(Cc3ccccc3)CC2)c2ccccc2n1` is lower in IC50: over 100000 nM for the first, 16000 nM for the second. The second is the more potent here.

First: O=C(c1ccccc1)N1CCC(c2nc(O)nc3ccccc23)CC1
Second: Nc1nc(C2CCN(C(=O)c3ccccc3)CC2)c2ccccc2n1
The IC50 of the first is 14-fold higher: 20000 nM for the first, 1400 nM for the second. The second is the more potent here.

First: COc1ccc(Cc2cc(C3CCN(C(=O)c4cccc(OC)c4OC)CC3)nc(N)n2)cc1
Second: COc1ccc(Cc2cc(C3CCN(C(=O)c4ccccc4OC)CC3)nc(N)n2)cc1
The IC50 of the first is 4-fold lower: 900 nM for the first, 3600 nM for the second. The first is the more potent here.

Going from `Nc1nc(C2CCN(C(=O)C3CCCCC3)CC2)c2ccccc2n1` to `Nc1nc(C2CCN(C3CCCCC3)CC2)c2ccccc2n1`, the IC50 rises from 2500 nM to 53000 nM (21-fold).

Compared with `COc1ccc(Cc2cc(C3CCN(C(=O)c4ccccc4[N+](=O)[O-])CC3)nc(N)n2)cc1`, `COc1ccc(Cc2cc(C3CCN(C(=O)c4cccc([N+](=O)[O-])c4)CC3)nc(N)n2)cc1` is 2.1-fold lower in IC50: 1700 nM for the first, 800 nM for the second. The second is the more potent here.

`CCCCCCCC(=O)N1CCC(c2cc(Cc3ccc(OC)cc3)nc(N)n2)CC1` and `CCCCCC(=O)N1CCC(c2cc(Cc3ccc(OC)cc3)nc(N)n2)CC1` are within 1.5-fold of each other in IC50: 1900 nM for the first, 1500 nM for the second.

Compared with `COc1ccc(Cc2cc(C3CCN(C(=O)c4ccccc4)CC3)nc(N)n2)cc1`, `COc1ccc(Cc2cc(C3CCN(C(=O)Cc4ccccc4)CC3)nc(N)n2)cc1` is 1.5-fold higher in IC50: 1400 nM for the first, 2100 nM for the second. The first is the more potent here.

Going from `CC(=O)N1CCC(c2nc(N)nc3ccccc23)CC1` to `CN1CCC(c2nc(N)nc3ccccc23)CC1`, the IC50 rises from 3600 nM to over 100000 nM.

Going from `Nc1nc(C2CCN(C(=O)Cc3ccccc3)CC2)c2ccccc2n1` to `Nc1nc(C2CCN(C(=O)CCc3ccccc3)CC2)c2ccccc2n1`, the IC50 rises from 2000 nM to 6300 nM (3.1-fold).

Compared with `CCCCC(=O)N1CCC(c2nc(N)nc3ccccc23)CC1`, `Nc1nc(C2CCNCC2)c2ccccc2n1` is 17-fold higher in IC50: 3000 nM for the first, 51000 nM for the second.

`COc1ccc(Cc2cc(C3CCN(C(=O)C(C)(C)C)CC3)nc(N)n2)cc1` and `CCCC(=O)N1CCC(c2cc(Cc3ccc(OC)cc3)nc(N)n2)CC1` are within 1.5-fold of each other in IC50: 5600 nM for the first, 7200 nM for the second.

`CN1CCN(c2nc(N)nc3ccccc23)CC1` and `Nc1nc(N2CCCCC2)c2ccccc2n1` cannot be ordered by IC50: over 100000 nM for the first, over 100000 nM for the second.

First: COc1ccc(Cc2cc(C3CCN(C(=O)Cc4ccc(Cl)c(Cl)c4)CC3)nc(N)n2)cc1
Second: COc1ccc(Cc2cc(C3CCN(C(=O)c4ccc(Cl)c(Cl)c4)CC3)nc(N)n2)cc1
The IC50 of the first is 3-fold higher: 2100 nM for the first, 700 nM for the second. The second is the more potent here.

`COc1ccc(-c2c(C)nc(N)nc2C2CCN(C(=O)c3ccccc3)CC2)cc1` and `Cc1cc(C2CCN(C(=O)c3ccccc3)CC2)nc(N)n1` are within 1.5-fold of each other in IC50: 9700 nM for the first, 9000 nM for the second.

`COc1ccc(Cc2cc(C3CCN(C(=O)c4ccc(OC)c(OC)c4)CC3)nc(N)n2)cc1` and `COc1ccc(Cc2cc(C3CCN(C(=O)Cc4ccc(OC)c(OC)c4)CC3)nc(N)n2)cc1` are within 1.5-fold of each other in IC50: 900 nM for the first, 1200 nM for the second.

Compared with `Nc1nc(C2CCN(C(=O)c3ccc4c(c3)OCO4)CC2)c2ccccc2n1`, `Nc1nc(C2CCN(CCc3ccccc3)CC2)c2ccccc2n1` is higher in IC50: 4500 nM for the first, over 100000 nM for the second.

`COc1ccc(Cc2cc(C3CCN(C(=O)Cc4ccc(Cl)cc4)CC3)nc(N)n2)cc1` and `COc1ccc(CC(=O)N2CCC(c3cc(Cc4ccc(OC)cc4)nc(N)n3)CC2)cc1` are within 1.5-fold of each other in IC50: 2400 nM for the first, 1700 nM for the second.

Compared with `Nc1nc(-c2ccccc2)cc(C2CCN(C(=O)c3ccccc3)CC2)n1`, `COc1ccc(Cc2cc(C3CCN(C(=O)c4ccc(Cl)cc4)CC3)nc(N)n2)cc1` is 8.5-fold lower in IC50: 5100 nM for the first, 600 nM for the second. The second is the more potent here.

`COc1ccc(Cc2cc(C3CCN(C(=O)c4ccc(OC)cc4)CC3)nc(N)n2)cc1` and `COc1ccc(Cc2cc(C3CCN(C(=O)c4ccc([N+](=O)[O-])cc4)CC3)nc(N)n2)cc1` are within 1.5-fold of each other in IC50: 500 nM for the first, 700 nM for the second.
